Literature values as cited in patent US20100249408A1, “USE OF NOVEL COMPOUND HAVING AFFINITY FOR AMYLOID, AND PROCESS FOR PRODUCTION OF THE SAME” (NIHON MEDI-PHYSICS CO., LTD., priority 2007, published 2010).

Settings: [11C]-labeled, rats; cited from earlier work

**Q.** With `CNc1ccc(/C=C/c2ccc(O)cc2)cc1` [SB-13, (E)-4-methylamino-4′-hydroxystilbene] as the molecule, how does the “Clearance from normal tissues” value read?
**A.** it cannot be said that the clearance is sufficiently fast
